Here are results for 5 compounds from patent publication US20050239656A1, “Pyridine compounds or salts thereof and herbicides containing the same” (priority 2002, published 2005).

Test [1] has as its system barnyardgrass. As to the kind of experiment: Test Example 1: foliage treatment, upland pot test. Type of test: in vivo, Echinochloa crus-galli L. Particulars: active ingredient 500 g/ha, observed 18th to 23rd day, 0 = non-treated, 100 = complete kill. The essentials:
(§1)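 Applied as a post-emergence foliar spray: formulated compound diluted to 500 L/ha with spreader at 0.1% (v/v). Treatment timing—rice at 1.2–2.6, wheat at 1.3–2.4, barnyardgrass at 1.3–2.8, soybean at 0.1–0.4 leaf stage. Scored visually on a 0–100% control scale after 18–23 days.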

For test [2], the system named is crabgrass. As to the kind of experiment: Test Example 1: foliage treatment, upland pot test. Type of test: in vivo, Digitaria sanguinalis L. The settings on record: active ingredient 500 g/ha, observed 18th to 23rd day, 0 = non-treated, 100 = complete kill.
Test [3] deals with green foxtail. Briefly: Test Example 1: foliage treatment, upland pot test. In kind it is in vivo, Setaria viridis L. Particulars: active ingredient 500 g/ha, observed 18th to 23rd day, 0 = non-treated, 100 = complete kill.
Test [4] relates to redroot pigweed. As to the kind of experiment: Test Example 1: foliage treatment, upland pot test. In kind it is in vivo, Amaranthus retroflexus L. Particulars: active ingredient 500 g/ha, observed 18th to 23rd day, 0 = non-treated, 100 = complete kill.
The test system of test [5] is prickly sida. Briefly: Test Example 1: foliage treatment, upland pot test. In kind it is in vivo, Sida spinosa L. The settings on record: active ingredient 500 g/ha, observed 18th to 23rd day, 0 = non-treated, 100 = complete kill.
In test [6] the test system is velvetleaf. As to the kind of experiment: Test Example 1: foliage treatment, upland pot test. Type of test: in vivo, Abutilon theophrasti MEDIC. The settings on record: active ingredient 500 g/ha, observed 18th to 23rd day, 0 = non-treated, 100 = complete kill.
The test system of test [7] is rice. Briefly: Test Example 1: foliage treatment, upland pot test. Particulars: crop, active ingredient 500 g/ha, observed 18th to 23rd day, 0 = non-treated, 100 = complete kill. In kind it is in vivo, Oryza sativa L. The essentials:
as §1

Test [8] deals with corn. Briefly: Test Example 1: foliage treatment, upland pot test. In kind it is in vivo, Zea mays L. The settings on record: crop, active ingredient 500 g/ha, observed 18th to 23rd day, 0 = non-treated, 100 = complete kill. In a few lines: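 In this upland pot foliage test, corn plants at 2.1 to 3.2 leaf stages were sprayed by a small size sprayer. The spray was a conventionally formulated wettable powder or emulsifiable concentrate weighed to a set active ingredient amount, diluted in water at 500 L/ha, plus 0.1% (v/v) agricultural spreader. Visual assessment on days 18 to 23 gave growth controlling degree (%), where 0 equals untreated and 100 means complete kill.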

Test [9] deals with soybean. Briefly: Test Example 1: foliage treatment, upland pot test. Particulars: crop, active ingredient 500 g/ha, observed 18th to 23rd day, 0 = non-treated, 100 = complete kill. Type of test: in vivo, Glycine max Merr. The essentials:
as §1

Test [10] deals with barnyardgrass. As to the kind of experiment: Test Example 2: soil surface treatment, upland pot test. Type of test: in vivo, Echinochloa crus-galli L. Particulars: active ingredient 500 g/ha, observed 20th to 28th day. The essentials:
(§2)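 Upland soil in pots of 1/170,000 ha is sown; on day 1 after sowing the formulated compound (wettable powder or emulsifiable concentrate, predetermined a.i. amount, water volume 1,500 L/ha) is applied to the soil surface with a small sprayer. Percent control is judged by eye 20–28 days later.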

The test system of test [11] is crabgrass. The description is as above. Type of test: in vivo, Digitaria sanguinalis L. Particulars: active ingredient 500 g/ha, observed 20th to 28th day. In a few lines:
as §2

Test [12] concerns green foxtail. The description is as above. Type of test: in vivo, Setaria viridis L. The settings on record: active ingredient 500 g/ha, observed 20th to 28th day. The essentials:
as §2

The test system of test [13] is redroot pigweed. Described as above. The settings on record: active ingredient 500 g/ha, observed 20th to 28th day. Type of test: in vivo, Amaranthus retroflexus L. In a few lines: as §2
Test [14] concerns prickly sida. The test is described as above. Type of test: in vivo, Sida spinosa L. The settings on record: active ingredient 500 g/ha, observed 20th to 28th day. The essentials: as §2
Test [15] concerns velvetleaf. The description is as above. In kind it is in vivo, Abutilon theophrasti MEDIC. Particulars: active ingredient 500 g/ha, observed 20th to 28th day. The essentials: as §2
For test [16], the system named is rice. The description is as above. In kind it is in vivo, Oryza sativa L. The settings on record: active ingredient 500 g/ha, observed 20th to 28th day. The essentials:
as §2

For test [17], the system named is corn. The description is as above. In kind it is in vivo, Zea mays L. Particulars: active ingredient 500 g/ha, observed 20th to 28th day. In a few lines:
as §2

Test [18] relates to soybean. Described as above. In kind it is in vivo, Glycine max Merr. Particulars: active ingredient 500 g/ha, observed 20th to 28th day. In a few lines:
as §2

Test [19] has as its system barnyardgrass. As to the kind of experiment: Test Example 3: paddy pot test, application under submerged conditions. In kind it is in vivo, Echinochloa crus-galli L. The settings on record: active ingredient 250 g/ha; submerged application at 0.5 leaf stage; visually observed 14 days after application; 0 = non-treated, 100 = complete kill. In a few lines: (§3)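 After sowing seeds and planting wapato tubers in flooded paddy soil, an aqueous dilution of the formulated compound was added to the 3–4 cm flood water at early leaf stage. Percent growth control relative to the untreated plot was assessed visually on day 14.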

In test [20] the test system is japanese bulrush. The description is as above. Particulars: active ingredient 250 g/ha; submerged application at 0.5 leaf stage; visually observed 14 days after application; 0 = non-treated, 100 = complete kill. Type of test: in vivo, Scirpus juncoides. In a few lines:
as §3

The test system of test [21] is japanese ribbon wapato. Described as above. Type of test: in vivo, Sagittaria pygniaea. Particulars: active ingredient 250 g/ha; submerged application at primary leaf stage; visually observed 14 days after application; 0 = non-treated, 100 = complete kill. In a few lines: as §3
Test [22] deals with rice (var. Nihonbare). As to the kind of experiment: Test Example 3: paddy pot test, transplanted rice. Type of test: in vivo, Oryza sativa L. Particulars: active ingredient 250 g/ha, applied 4th day after transplantation, visually observed 21st day after application, 0 = non-treated, 100 = complete kill. The essentials: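 Rice (2-leaf stage) was transplanted 3 cm deep into puddled, leveled paddy soil under 3–4 cm flooding. On day 4 after transplanting, diluted wettable powder or emulsifiable concentrate was pipetted onto the water at a predetermined active-ingredient dose. Growth control (0 = untreated, 100 = complete kill) was scored visually 21 days later.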

Regarding `CC(C)C(c1cnccc1C(F)(F)F)N(C)C(=O)Cc1c(F)cccc1Cl` (centres unmarked) [I-33], the results for the “Growth controlling degree (%) Barnyardgrass” value in [1], in test [10] and in [19] were 20%, 100% and 100%, respectively. In addition, the “Growth controlling degree (%) Crabgrass” value in test [2] amounted to 80%; in test [11] it was 100%. Also, the results for the “Growth controlling degree (%) Green foxtail” value in [3] and in test [12] were 70% and 90%, respectively. The “Growth controlling degree (%) Redroot pigweed” value in test [4] is reported as 60%; in test [13], 80%. The “Growth controlling degree (%) Prickly sida” value amounted to 70% in test [5] and 80% in test [14]. Besides, the figures for the “Growth controlling degree (%) Velvetleaf” value in test [6] and in test [15] were 80% and 90%, respectively. Moreover, the “Growth controlling degree (%) Rice” value in [7] is reported as 30%; in [16], 10%; in test [22] it was 10%. In addition, the “Growth controlling degree (%) Corn” value in test [8] stood at 0%; in test [17] it was 30%. In test [9], the “Growth controlling degree (%) Soybean” value was found to be 40%. Moreover, the “Growth controlling degree (%) Soyabean” value in [18] amounted to 0%. The “Growth controlling degree (%) Japanese bulrush” value in test [20] is given as 85%. Besides, in test [21], the “Growth controlling degree (%) Japanese ribbon wapato” value was 90%.
As for `Cc1ccccc1CC(=O)N(C)C(c1cnccc1C(F)(F)F)C(C)C` (centres unmarked) [I-36], the “Growth controlling degree (%) Barnyardgrass” value is listed as 95% in test [1], 100% in [10] and 100% in [19]. In addition, the “Growth controlling degree (%) Crabgrass” value in [2] and in test [11] was 98% throughout. The figures for the “Growth controlling degree (%) Green foxtail” value in test [3] and in test [12] were 70% and 98%, respectively. Moreover, the “Growth controlling degree (%) Redroot pigweed” value in test [4] and in test [13] was 80% each time. Besides, the “Growth controlling degree (%) Prickly sida” value was found to be 90% in test [5] and 100% in test [14]. Also, the “Growth controlling degree (%) Velvetleaf” value is recorded as 70% in test [6] and 50% in test [15]. The “Growth controlling degree (%) Rice” value is on record as 10% in test [7], 30% in test [16] and 10% in test [22]. The “Growth controlling degree (%) Corn” value in test [8] is given as 35%; in test [17], 20%. Moreover, the “Growth controlling degree (%) Soybean” value in [9] was 70%. Further, the “Growth controlling degree (%) Soyabean” value in test [18] is recorded as 10%. The “Growth controlling degree (%) Japanese bulrush” value in test [20] stood at 95%. Besides, the “Growth controlling degree (%) Japanese ribbon wapato” value in test [21] turned out to be 90%.
Take `COc1ccc(CC(=O)N(C)C(c2cnccc2C(F)(F)F)C(C)C)cc1` (centres unmarked) [I-38]: the “Growth controlling degree (%) Barnyardgrass” value in test [1] is reported as 70%; in [10] it was 100%; in test [19], 100%. In addition, the “Growth controlling degree (%) Crabgrass” value was 70% in test [2] and 90% in test [11]. For the same compound, the “Growth controlling degree (%) Green foxtail” value in [3] worked out at 60%; in test [12], 80%. In addition, the “Growth controlling degree (%) Redroot pigweed” value in [4] and in test [13] was 80% in each case. The figures for the “Growth controlling degree (%) Prickly sida” value in [5] and in test [14] were 70% and 100%, respectively. Moreover, the “Growth controlling degree (%) Velvetleaf” value in [6] is recorded as 90%; in test [15], 0%. Moreover, the “Growth controlling degree (%) Rice” value came out at 10% in [7], 20% in test [16] and 30% in test [22]. In addition, the “Growth controlling degree (%) Corn” value is given as 40% in test [8] and 10% in test [17]. In addition, in test [9], the “Growth controlling degree (%) Soybean” value turned out to be 60%. For the same compound, in test [18], the “Growth controlling degree (%) Soyabean” value turned out to be 0%. The “Growth controlling degree (%) Japanese bulrush” value in test [20] came to 70%. For the same compound, in test [21], the “Growth controlling degree (%) Japanese ribbon wapato” value was 85%.
`CC(C)C(c1cnccc1C(F)(F)F)N(C)C(=O)Cc1cccc(C(F)(F)F)c1` (centres unmarked) [I-40]: the “Growth controlling degree (%) Barnyardgrass” value was found to be 40% in test [1], 95% in test [10] and 100% in test [19]. The “Growth controlling degree (%) Crabgrass” value in [2] was determined as 95%; in [11], 100%. The “Growth controlling degree (%) Green foxtail” value was 70% in test [3] and 100% in [12]. The entries for the “Growth controlling degree (%) Redroot pigweed” value in test [4] and in test [13] were 80% and 90%, respectively. Also, the “Growth controlling degree (%) Prickly sida” value in test [5] stood at 80%; in test [14], 100%. Further, the “Growth controlling degree (%) Velvetleaf” value amounted to 90% in test [6] and 70% in [15]. For the same compound, the “Growth controlling degree (%) Rice” value turned out to be 50% in test [7], 20% in test [16] and 0% in test [22]. The “Growth controlling degree (%) Corn” value in test [8] is 90%; in test [17] it was 50%. Besides, the “Growth controlling degree (%) Soybean” value in test [9] stood at 60%. In test [18], the “Growth controlling degree (%) Soyabean” value stood at 30%. In addition, the “Growth controlling degree (%) Japanese bulrush” value in [20] was 50%. The “Growth controlling degree (%) Japanese ribbon wapato” value in test [21] is reported as 50%.
With `CC(C)C(c1cnccc1C(F)(F)F)N(C)C(=O)Cc1ccc(F)c(F)c1` (centres unmarked) [I-60], the “Growth controlling degree (%) Barnyardgrass” value in test [1] is reported as 60%; in test [10], 98%; in [19], 100%. Further, the results for the “Growth controlling degree (%) Crabgrass” value in test [2] and in test [11] were 80% and 100%, respectively. In addition, the “Growth controlling degree (%) Green foxtail” value amounted to 70% in test [3] and 98% in [12]. Moreover, the results for the “Growth controlling degree (%) Redroot pigweed” value in test [4] and in test [13] were 60% and 80%, respectively. Besides, the “Growth controlling degree (%) Prickly sida” value in [5] was determined as 70%; in test [14], 98%. The entries for the “Growth controlling degree (%) Velvetleaf” value in test [6] and in test [15] were 90% and 70%, respectively. Moreover, the “Growth controlling degree (%) Rice” value in test [7] is reported as 50%; in test [16], 20%; in test [22], 30%. The results for the “Growth controlling degree (%) Corn” value in test [8] and in test [17] were 70% and 10%, respectively. Besides, the “Growth controlling degree (%) Soybean” value in test [9] was found to be 35%. Moreover, the “Growth controlling degree (%) Soyabean” value in test [18] worked out at 10%. Moreover, the “Growth controlling degree (%) Japanese bulrush” value in test [20] stood at 70%. Also, in [21], the “Growth controlling degree (%) Japanese ribbon wapato” value is 95%.
